Data on 29 compounds can be found in patent US7563793B2, “Pyrrolo[1,2-a]quinoxalin-5-(4H)-yl)sulfonyls and carbonyls and their use as estrogenic agents” (Wyeth, priority 2004, dated 2009).

Where two headings read alike, the source gives them in different places.

As usually defined, the IC50 is the midpoint of a concentration-inhibition curve.

What all share (type): cell-based, human
The test system of one assay is creatine kinase. Description: Creatine kinase assay in Ad5-wt-ER infected HAECT-1 cells. The conditions noted are these: for EC50 / Emax: Homo sapiens; for EC50: HAECT1, CK stimulation, N/O = activity not observed at concentrations tested, read-out: CK IC50; for Emax: HAECT1, relative to maximal stimulation observed with E2, read-out: CK Efficacy; for CK Efficacy: relative to maximal stimulation observed with E2. How it is done: (§1) After four hours, cells were washed with EBM-BSA and incubated overnight in the same medium. […] After two hours, cells were washed and incubated at 34° C. for 1 hour. […] Control (no ER infection) cells were processed as above without Ad5-wt-hERα virus infection. […] Cells were subsequently washed with 300 μl of Dulbecco's phosphate buffered saline and lysed in 50 μl of Cell Culture Lysis Reagent (Promega). Luciferase was determined on a Wallac Victor^2 Luminometer (Gaithersburg, Md.) using 10 μl of lysate and mixing with 100 lμof Promega Luciferase Assay reagent. […] For IC50 and EC50 calculations, mean IL-6, luciferase or CK values versus log10 of the compound concentration were fitted to a four parameter logistic equation. The IC50/EC50 value, ‘Hill slope’, upper and lower limits of the curve were iteratively estimated.

The next assay relates to IL-6. Description: IL-6 assay (ELISA) in Ad5-wt-ER infected HAECT-1 cells (IL-1β induced). The settings on record: for Emax: HAECT1, relative to maximal inhibition observed with E2, read-out: IL-6 Efficacy; for IL-6 Efficacy: relative to maximal inhibition observed with E2. How it is done: as §1
Another assay concerns ER/Nf-kB. Description: ER/NF-κB luciferase reporter assay in Ad5-wt-ER infected HAECT-1 cells (IL-1β induced). The settings on record: for ER/Nf-kB Efficacy: relative to maximal inhibition observed with E2. How it is done:
as §1

Regarding `CC[C@H]1c2ccc(C#N)n2-c2ccc(F)cc2N1C(=O)c1ccc(O)cc1` [Example 129, (4S)-4-ethyl-7-fluoro-5-(4-hydroxybenzoyl)-4,5-dihydropyrrolo[1,2-a]quinoxaline-1-carbonitrile], the EC50 in the assay on creatine kinase is 636 nM. For the same compound, the values for the Emax in the assay with creatine kinase and in the assay on IL-6 (Homo sapiens) were -7% and -77%, respectively. In the assay with IL-6 (Homo sapiens, HAECT1), this compound displayed an IC50 of 29 nM.
For `CC[C@H]1c2cccn2-c2ccc(Cl)cc2N1C(=O)c1ccc(O)cc1O` [125 (S), 4-{[(4S)-7-chloro-4-ethylpyrrolo[1,2-a]quinoxalin-5(4H)-yl]carbonyl}benzene-1,3-diol], in the assay on creatine kinase, the EC50 stood at 68 nM and the Emax was determined as 15%. For the same compound, it took 1100 nM to reach half-maximal inhibition in the assay on IL-6 (Homo sapiens, HAECT1) (IC50). Besides, the Emax in the assay on IL-6 (Homo sapiens) turned out to be 81%.
`CC[C@@H]1c2ccc(C#N)n2-c2ccc(F)cc2N1C(=O)c1ccc(O)cc1` [Example 128, (4R)-4-ethyl-7-fluoro-5-(4-hydroxybenzoyl)-4,5-dihydropyrrolo[1,2-a]quinoxaline-1-carbonitrile] had an IC50 with IL-6 (Homo sapiens, HAECT1) of 64 nM. The Emax in the assay on IL-6 (Homo sapiens) was 111%.
`C[C@@H]1c2cccn2-c2ccc(F)cc2N1C(=O)c1cccc(O)c1` [131 (R), 3-{[(4R)-4-methyl-7-fluoropyrrolo[1,2-a]quinoxalin-5(4H)-yl]carbonyl}phenol] yielded an IC50 with IL-6 (Homo sapiens, HAECT1) of 179 nM. Further, the Emax in the assay with IL-6 (Homo sapiens) was found to be 103%.
In the case of `CC[C@H]1c2cccn2-c2ccc(F)cc2N1C(=O)c1cccc(O)c1` [127 (S), 3-{[(4S)-4-ethyl-7-fluoropyrrolo[1,2-a]quinoxalin-5(4H)-yl]carbonyl}phenol], in the assay on creatine kinase, the EC50 was determined as 33 nM and the Emax came out at 33%. The compound also came in with an IC50 in the assay on IL-6 (Homo sapiens, HAECT1) of 1330 nM. For the same compound, the Emax with IL-6 (Homo sapiens) came to 41%.
Turning to `CC[C@@H]1c2cccn2-c2ccc(F)cc2N1C(=O)c1ccc(O)cc1` [119 (R), 4-{[(4R)-4-ethyl-7-fluoropyrrolo[1,2-a]quinoxalin-5(4H)-yl]carbonyl}phenol], in the assay on creatine kinase, the EC50 is 11 nM and the Emax worked out at 27%. In the assay with IL-6 (Homo sapiens, HAECT1), this compound displayed an IC50 of 8 nM. For the same compound, the Emax in the assay with IL-6 (Homo sapiens) is 95%.
In the same order, the values of `CC[C@@H]1c2cccn2-c2ccc(Br)cc2N1C(=O)c1ccc(O)cc1` [111 (R), 4-{[(4R)-7-bromo-4-ethylpyrrolo[1,2-a]quinoxalin-5(4H)-yl]carbonyl}phenol] are 117 nM, 40%, 46 nM and 87%.
Consider `CC1c2cccn2-c2ccc(Br)cc2N1C(=O)c1ccc(O)cc1` (stereo not drawn) [Example 108, 4-[(7-bromo-4-methylpyrrolo[1,2-a]quinoxalin-5(4H)-yl)carbonyl]phenol], for which, in the assay on creatine kinase, the EC50 amounted to 18 nM and the Emax was determined as 7%. In the assay with IL-6 (Homo sapiens, HAECT1), the IC50 was 53 nM. Moreover, the Emax in the assay with IL-6 (Homo sapiens) turned out to be 118%.
Turning to `Cc1cc(S(=O)(=O)N2c3cc(F)ccc3-n3cccc3C2C)ccc1O` (stereo not drawn) [Example 51, 4-[(7-fluoro-4-methylpyrrolo[1,2-a]quinoxalin-5-(4H)-yl)sulfonyl]-2-methylphenol], in the assay with ER/Nf-kB, 155 nM corresponded to half-maximal inhibition (IC50) and the “ER/Nf-kB Efficacy” value amounted to 66%.
`CC(C)(C)C1c2cccn2-c2ccc(Br)cc2N1C(=O)c1ccc(O)cc1` (stereo not drawn) [Example 116, 4-[(7-bromo-4-tert-butylpyrrolo[1,2-a]quinoxalin-5(4H)-yl)carbonyl]phenol]: in the assay with IL-6 (Homo sapiens, HAECT1), the IC50 was determined as 207 nM. In addition, in the assay on IL-6 (Homo sapiens), the Emax turned out to be 90%.
In the same order, the values of `C[C@H]1c2cccn2-c2ccc(F)cc2N1C(=O)c1cccc(O)c1` [131 (S), 3-{[(4S)-4-methyl-7-fluoropyrrolo[1,2-a]quinoxalin-5(4H)-yl]carbonyl}phenol] are 1460 nM and 69%.
Turning to `CCC1c2ccc(F)n2-c2ccc(F)cc2N1S(=O)(=O)c1ccc(O)cc1` (stereo not drawn) [Example 23, 4-[(4-ethyl-1,7-difluoropyrrolo[1,2-a]quinoxalin-5-(4H)-yl)sulfonyl]phenol], the “CK Efficacy” value with creatine kinase came out at 52%. Further, in the assay with IL-6, the IC50 was found to be 6.6 nM and the “IL-6 Efficacy” value was 162%.
`CC[C@H]1c2cccn2-c2ccc(Br)cc2N1C(=O)c1ccc(O)cc1` [111 (S), 4-{[(4S)-7-bromo-4-ethylpyrrolo[1,2-a]quinoxalin-5(4H)-yl]carbonyl}phenol]: in the assay on IL-6 (Homo sapiens, HAECT1), the IC50 was found to be 1090 nM. In addition, in the assay with IL-6 (Homo sapiens), the Emax stood at 65%.
Regarding `CCC1c2cccn2-c2ccc(Br)cc2N1C(=O)c1ccc(O)cc1` (stereo not drawn) [Example 110, 4-[(7-bromo-4-ethylpyrrolo[1,2-a]quinoxalin-5(4H)-yl)carbonyl]phenol], the IC50 with IL-6 (Homo sapiens, HAECT1) is 369 nM. In the assay on IL-6 (Homo sapiens), the Emax came to 78%.
On to `CCC1c2cccn2-c2ccc(Br)cc2N1C(=O)c1cccc(O)c1` (stereo not drawn) [Example 112, 3-[(7-bromo-4-ethylpyrrolo[1,2-a]quinoxalin-5(4H)-yl)carbonyl]phenol], for which the EC50 in the assay with creatine kinase was 207 nM. The Emax turned out to be 21% with creatine kinase and 88% in the assay on IL-6 (Homo sapiens). Further, the IC50 in the assay with IL-6 (Homo sapiens, HAECT1) came to 152 nM.
`CC1c2cccn2-c2ccc(Br)cc2N1C(=O)c1ccc(O)cc1O` (stereo not drawn) [Example 109, 4-[(7-bromo-4-methylpyrrolo[1,2-a]quinoxalin-5(4H)-yl)carbonyl]benzene-1,3-diol]: in the assay with creatine kinase, the EC50 amounted to 398 nM and the Emax was 40%. For the same compound, inhibition with IL-6 (Homo sapiens, HAECT1) was half-maximal at 42 nM (IC50). Moreover, the Emax in the assay on IL-6 (Homo sapiens) is 128%.
For `CCC1c2cccn2-c2cc(F)c(F)cc2N1S(=O)(=O)c1ccc(OS(N)(=O)=O)cc1` (stereo not drawn) [Example 105, 4-{4-ethyl-7,8-difluoropyrrolo[1,2-a]quinoxalin-5(4H)-yl]sulfonyl}phenyl sulfamate], in the assay on creatine kinase, the “CK Efficacy” value is 49%. Further, in the assay on IL-6, the IC50 is 2 nM and the “IL-6 Efficacy” value worked out at 116%.
For the compound `CC1c2ccc(F)n2-c2cc(F)c(F)cc2N1S(=O)(=O)c1ccc(O)cc1` (stereo not drawn) [Example 13, 4-[(1,7,8-trifluoro-4-methylpyrrolo[1,2-a]quinoxalin-5-(4H)-yl)sulfonyl]phenol], in the assay on ER/Nf-kB, the IC50 amounted to 20 nM and the “ER/Nf-kB Efficacy” value is given as 104%.
As to `CC(C)(C)[C@@H]1c2cccn2-c2ccc(Br)cc2N1C(=O)c1cccc(O)c1` [115 (R), 3-{[(4R)-7-bromo-4-tert-butylpyrrolo[1,2-a]quinoxalin-5(4H)-yl]carbonyl}phenol], the IC50 with IL-6 (Homo sapiens, HAECT1) was determined as 647 nM. Besides, the Emax with IL-6 (Homo sapiens) was 82%.
Turning to `C[C@H]1c2cccn2-c2ccc(F)cc2N1C(=O)c1ccc(O)cc1` [123 (S), 4-{[(4S)-7-fluoro-4-methylpyrrolo[1,2-a]quinoxalin-5(4H)-yl]carbonyl}phenol], 606 nM corresponded to half-maximal inhibition in the assay on IL-6 (Homo sapiens, HAECT1) (IC50). Also, the Emax with IL-6 (Homo sapiens) is 47%.
Turning to `C[C@H]1c2cccn2-c2ccc(Br)cc2N1C(=O)c1cccc(O)c1` [107 (S), 3-{[(4S)-7-bromo-4-methylpyrrolo[1,2-a]quinoxalin-5(4H)-yl]carbonyl}phenol], the IC50 in the assay on IL-6 (Homo sapiens, HAECT1) was 1060 nM. The Emax in the assay with IL-6 (Homo sapiens) came out at 66%.
For `CC(C)(C)C1c2cccn2-c2ccc(Br)cc2N1C(=O)c1ccc(O)cc1O` (stereo not drawn) [Example 117, 4-[(7-bromo-4-tert-butylpyrrolo[1,2-a]quinoxalin-5(4H)-yl)carbonyl]benzene-1,3-diol], in the assay on creatine kinase, the EC50 stood at 33 nM. Besides, the Emax in the assay with creatine kinase is 42%; in the assay with IL-6 (Homo sapiens) it was 90%. The compound further yielded an IC50 with IL-6 (Homo sapiens, HAECT1) of 9 nM.
On to `CC[C@@H]1c2cccn2-c2ccc(F)cc2N1C(=O)c1ccc(O)cc1O` [121 (R), 4-{[(4R)-4-ethyl-7-fluoropyrrolo[1,2-a]quinoxalin-5(4H)-yl]carbonyl}benzene-1,3-diol], for which, in the assay on creatine kinase, the EC50 was found to be 13 nM and the Emax is 36%. In addition, in the assay on IL-6 (Homo sapiens, HAECT1), half-maximal inhibition (IC50) was put at 1.6 nM. Moreover, the Emax in the assay with IL-6 (Homo sapiens) was determined as 108%.
Turning to `CC[C@H]1c2cccn2-c2ccc(F)cc2N1C(=O)c1ccc(O)cc1O` [121 (S), 4-{[(4S)-4-ethyl-7-fluoropyrrolo[1,2-a]quinoxalin-5(4H)-yl]carbonyl}benzene-1,3-diol], the EC50 in the assay with creatine kinase turned out to be 64 nM. Further, the Emax was 32% in the assay with creatine kinase and 95% with IL-6 (Homo sapiens). This compound returned an IC50 in the assay on IL-6 (Homo sapiens, HAECT1) of 72 nM.
`CC1c2cccn2-c2ccc(Br)cc2N1C(=O)c1cccc(O)c1` (stereo not drawn) [Example 106, 3-[(7-bromo-4-methylpyrrolo[1,2-a]quinoxalin-5(4H)-yl)carbonyl]phenol] had an IC50 with IL-6 (Homo sapiens, HAECT1) of 10 nM. Moreover, the Emax in the assay with IL-6 (Homo sapiens) is 54%.
`CC[C@H]1c2cccn2-c2ccc(F)cc2N1C(=O)c1ccc(O)cc1` [119 (S), 4-{[(4S)-4-ethyl-7-fluoropyrrolo[1,2-a]quinoxalin-5(4H)-yl]carbonyl}phenol] showed an IC50 with IL-6 (Homo sapiens, HAECT1) of 101 nM. Besides, in the assay with IL-6 (Homo sapiens), the Emax worked out at 79%.
Turning to `CCC1c2cccn2-c2ccc(Br)cc2N1C(=O)c1ccc(O)cc1O` (stereo not drawn) [Example 113, 4-[(7-bromo-4-ethylpyrrolo[1,2-a]quinoxalin-5(4H)-yl)carbonyl]benzene-1,3-diol], in the assay with creatine kinase, the EC50 stood at 25 nM and the Emax came out at 28%. This compound also registered an IC50 in the assay with IL-6 (Homo sapiens, HAECT1) of 9.5 nM. Also, in the assay on IL-6 (Homo sapiens), the Emax worked out at 101%.
On to `CC(C)(C)[C@H]1c2cccn2-c2ccc(Br)cc2N1C(=O)c1cccc(O)c1` [115 (S), 3-{[(4S)-7-bromo-4-tert-butylpyrrolo[1,2-a]quinoxalin-5(4H)-yl]carbonyl}phenol], for which inhibition with IL-6 (Homo sapiens, HAECT1) was half-maximal at 455 nM (IC50). Moreover, the Emax in the assay with IL-6 (Homo sapiens) amounted to 94%.
In the same order, the values of `CC(C)(C)C1c2cccn2-c2ccc(Br)cc2N1C(=O)c1cccc(O)c1` (stereo not drawn) [Example 114, 3-[(7-bromo-4-tert-butylpyrrolo[1,2-a]quinoxalin-5(4H)-yl)carbonyl]phenol] are 441 nM and 38%.
